Results reported in patent US11261184B2, “[1,6]naphthyridine compounds and derivatives as CDK8/CDK19 inhibitors” (Boehringer Ingelheim International GmbH, priority 2017, dated 2022).

Key:
[1] = Metabolic (microsomal) stability assay, mouse liver microsomes; assay type: in vitro ADME; conditions: predicted clearance as percent of liver blood flow; mouse liver microsomes 0.5 mg/mL, 1 μM compound, 37° C.
Method: (§1) Metabolic (Microsomal) Stability Assay
(§2) The metabolic degradation of the test compound is assayed at 37° C. with pooled liver microsomes (mouse (MLM), rat (RLM) or human (HLM)). The final incubation volume of 74 μL per time point contains TRIS buffer (pH 7.5; 0.1 M), magnesium chloride (6.5 mM), microsomal protein (0.5 mg/mL for mouse/rat, 1 mg/mL for human specimens) and the test compound at a final concentration of 1 μM. Following a short preincubation period at 37° C., the reactions are initiated by addition of 8 μL beta-nicotinamide adenine dinucleotide phosphate, reduced form (NADPH, 10 mM) and terminated by transferring an aliquot into solvent after different time points. Additionally, the NADPH-independent degradation is monitored in incubations without NADPH, terminated at the last time point by addition of acetonitril. The quenched incubations are pelleted by centrifugation (1811 g, 5 min). An aliquot of the supernatant is assayed by LC-MS/MS for the amount of parent compound.
(§3) In vitro intrinsic clearance (CLint,in vitro) is calculated from the time course of the disappearance of the test drug during the microsomal incubation. Each plot is fitted to the first-order elimination rate constant as C(t)=C0*exp(−ke*t), where C(t) and C0 are the concentration of unchanged test drug at incubation time t and that at preincubation and ke is the disappearance rate constant of the unchanged drug. Subsequently, CLint,in vitro (μL·min^−1·amount protein) values are converted to CLint,in vitro (mL·min^−1·kg^−1) for the whole body. CLint,in vitro data are scaled up using physiological parameters. For better across species comparison the predicted clearance is expressed as percent of the liver blood flow [% QH] in the individual species. In general high stability (corresponding to low % QH) of the compounds across species is desired.

[2] = Metabolic (microsomal) stability assay, human liver microsomes; assay type: in vitro ADME; conditions: predicted clearance as percent of liver blood flow; human liver microsomes 1 mg/mL, 1 μM compound, 37° C.
Method: as §1, §2, §3

[3] = Metabolic (microsomal) stability assay, rat liver microsomes; assay type: in vitro ADME; conditions: predicted clearance as percent of liver blood flow; rat liver microsomes 0.5 mg/mL, 1 μM compound, 37° C.
Method: as §1, §2, §3

CDK8/cyclin C = CDK8/cyclin C (Homo sapiens (Human), UniProt P49336); assay: CDK8 biochemical assay (TR-FRET Kinase Tracer 236 displacement); assay type: binding; conditions: 5 nM CDK8/cyclin C, 10 nM Kinase Tracer 236, 60 min
Method: This assay is used to identify compounds which competitively interact with the binding pocket of the CDK8 kinase.
Assay-ready plates (ARPs; Proxiplate-384 PLUS, white, PerkinElmer) with compound solution in 100% DMSO are generated on an Access Labcyte Workstation with the Labcyte Echo 55x. 150 nL of compound solution are transferred per well in 11 concentrations in duplicates with serial 1:5 dilutions. The final DMSO concentration in the assay is 1%.
5 nM (final assay concentration) CDK8/cyclin C, 2 nM (final assay concentration) Biotin anti-His Tag Antibody and 2 nM (final assay concentration) LanthaScreen Eu-Streptavidin are mixed in assay buffer (50 mM HEPES pH 7.3, 10 mM MgCl2, 1 mM EGTA, 0.01% Brij-35, 0.05% BSA, 1 mM DTT) prior to use and kept at room temperature.
The assay runs on a fully automated robotic system. 10 μL of CDK8/cyclin C, Biotin anti-His Tag Antibody and LanthaScreen Eu-Streptavidin mix are dispensed into columns 1-24. 5 μL of 10 nM (final assay concentration) Kinase Tracer 236 solution in assay buffer are added to columns 1-23, 5 μL of assay buffer into column 24. Plates are kept at room temperature in a darkened incubator. After 60 min incubation time the signal is measured in a PerkinElmer Envision HTS Multilabel Reader using the TR-FRET specs from PerkinElmer.
Each plate contains 16 wells of a negative control (diluted DMSO instead of test compound; CDK8/cyclin C, Biotin anti-His Tag Antibody and LanthaScreen Eu-Streptavidin mix w Kinase Tracer 236; column 23) and 16 wells of a positive control (diluted DMSO instead of test compound; CDK8/cyclin C, Biotin anti-His Tag Antibody and LanthaScreen Eu-Streptavidin mix w/o Kinase Tracer 236; column 24). A known inhibitor of CDK8/cyclin C binding is used as internal control. IC50 values are calculated and analyzed in the MEGALAB IC50 application using a 4 parametric logistic model.
Table 4 includes IC50 values of example compounds determined using the above assay.

CDK8/cyclin C, sequence (P49336 whole entry): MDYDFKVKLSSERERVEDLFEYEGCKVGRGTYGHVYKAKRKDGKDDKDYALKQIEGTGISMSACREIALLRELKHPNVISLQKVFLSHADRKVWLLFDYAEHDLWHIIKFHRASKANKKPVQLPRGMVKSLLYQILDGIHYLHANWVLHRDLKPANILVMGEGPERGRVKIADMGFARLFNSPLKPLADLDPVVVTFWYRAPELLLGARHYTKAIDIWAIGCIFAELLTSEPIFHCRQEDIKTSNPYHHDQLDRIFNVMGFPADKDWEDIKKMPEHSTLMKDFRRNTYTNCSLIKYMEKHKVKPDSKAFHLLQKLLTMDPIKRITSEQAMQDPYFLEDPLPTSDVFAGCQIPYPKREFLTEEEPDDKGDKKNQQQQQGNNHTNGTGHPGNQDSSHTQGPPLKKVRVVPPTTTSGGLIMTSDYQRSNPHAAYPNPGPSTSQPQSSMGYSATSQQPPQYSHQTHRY
CDK8/cyclin C, sequence (P24863 whole entry partner): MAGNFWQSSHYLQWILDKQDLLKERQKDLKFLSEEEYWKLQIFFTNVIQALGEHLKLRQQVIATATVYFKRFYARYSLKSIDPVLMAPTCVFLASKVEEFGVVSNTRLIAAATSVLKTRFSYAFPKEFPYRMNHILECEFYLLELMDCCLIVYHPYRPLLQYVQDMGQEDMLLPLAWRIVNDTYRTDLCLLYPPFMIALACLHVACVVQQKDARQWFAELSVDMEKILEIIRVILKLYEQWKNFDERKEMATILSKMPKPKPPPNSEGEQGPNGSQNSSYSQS

Row | SMILES | MLM [% QH] [1] [% QH] | HLM [% QH] [2] [% QH] | RLM [% QH] [3] [% QH] | IC50 (CDK8/cyclin C) [nM]
1 | CN(C)C(=O)Cn1cc(-c2ccc(Oc3ccnc4c(Cl)cncc34)cc2)cn1 [I-043] | 25 | <24 | 42 | 2.7
2 | CN1CCN(C(=O)[C@@H]2CCN(c3ccc(Oc4ccnc5c(F)cncc45)cc3)C2)CC1 [I-021] |  |  |  | < 1
3 | CC(=O)N1CCN(c2ccc(Oc3ccnc4ccncc34)cc2)CC1 [I-031] | 42 | 28 | 29 | 4.7
4 | CN(C)C(=O)C1CN(c2ccc(Oc3ccnc4c(F)cncc34)cc2)C1 [I-032] | <24 | 27 | <24 | 2.1
5 | c1cc2nccc(Oc3ccc(N4CCOCC4)cc3)c2cn1 [I-030] | 58 | <24 | 60 | 14
6 | CC(=O)NC1CN(c2ccc(Oc3ccnc4c(F)cncc34)cc2)C1 [I-033] |  |  |  | 3.9
7 | O=C1CCCN1[C@H]1CCN(c2ccc(Oc3ccnc4c(F)cncc34)cc2)C1 [I-025] |  |  |  | 1.6
8 | CN(C)C(=O)[C@H]1CCN(c2ccc(Oc3ccnc4c(Cl)cncc34)cc2)C1 [I-007] | 49 | <24 | 66 | 1.3
9 | O=C1CCCN1CCOc1ccc(Oc2ccnc3c(F)cncc23)cc1 [I-037] | <24 | <24 | 47 | 27
10 | Fc1cncc2c(Oc3ccc(N4CCn5ccnc5C4)cc3)ccnc12 [I-029] | 36 | 29 | 57 | 16.6
11 | CN1CCN(C(=O)[C@H]2CCN(c3ccc(Oc4ccnc5c(Cl)cncc45)cc3)C2)CC1 [I-012] |  |  |  | 1.3
12 | CC(=O)N(C)[C@H]1CCN(c2ccc(Oc3ccnc4c(F)cncc34)cc2)C1 [I-024] | <24 | <24 | <24 | 1.4
13 | CC(=O)N[C@@H]1CCN(c2ccc(Oc3ccnc4c(F)cncc34)cc2)C1 [I-026] | <24 | <24 | 25 | 2.9
14 | c1cc2nccc(Oc3ccc(N4CCCC4)cc3)c2cn1 [I-001] |  |  |  | 3.6
15 | Fc1cncc2c(Oc3ccc(N4CCCC4)cc3)ccnc12 [I-002] |  |  |  | 3.4
16 | Cc1nccc2nccc(Oc3ccc(N4CCCC4)cc3)c12 [I-005] |  |  |  | 11.2
17 | CN(C)C(=O)[C@@H]1CCN(c2ccc(Oc3ccnc4c(F)cncc34)cc2)C1 [I-019] | 28 | <24 | 41 | 1.7
18 | CN(C)C(=O)Cn1cc(-c2ccc(Oc3ccnc4c(F)cncc34)cc2)cn1 [I-039, 2-{4-[4-(8-fluoro-[1,6]naphthyridin-4-yloxy)-phenyl]-pyrazol-1-yl}-N,N-dimethyl-acetamide] | 26 | <24 | <24 | 2.5
19 | CN(C)C(=O)[C@H]1CCN(c2ccc(Oc3ccnc4ccncc34)cc2)C1 [I-006] |  |  |  | 1.6

Row | SMILES | MLM [% QH] [1] [% QH] | HLM [% QH] [2] [% QH] | RLM [% QH] [3] [% QH] | IC50 (CDK8/cyclin C) [nM]
20 | CN(CCO)C(=O)[C@H]1CCN(c2ccc(Oc3ccnc4c(F)cncc34)cc2)C1 [I-017, (S)-1-[4-(8-fluoro-[1,6]naphthyridin-4-yloxy)-phenyl]-pyrrolidine-3-carboxylic acid (2-hydroxy-ethyl)-methyl-amide] | <24 | <24 | 24 | 1.8
21 | CN(CCO)C(=O)[C@H]1CCN(c2ccc(Oc3ccnc4c(Cl)cncc34)cc2)C1 [I-010] | 57 | 50 |  | 1.3
22 | CN1CCN(c2ccc(Oc3ccnc4ccncc34)cc2)CC1 [I-028] |  |  |  | 11.1
23 | CC(=O)N(C)CCOc1ccc(Oc2ccnc3c(F)cncc23)cc1 [I-038] |  |  |  | 6.6
24 | COCCN(C)C(=O)[C@H]1CCN(c2ccc(Oc3ccnc4c(Cl)cncc34)cc2)C1 [I-011] |  |  |  | 1.5
25 | CC(=O)N1CCN(c2ccc(Oc3cc(N(C)C)nc4ccncc34)cc2)CC1 [I-027] |  |  |  | 4.5
26 | Cc1cncc2c(Oc3ccc(-c4cnn(CC(=O)N(C)C)c4)cc3)ccnc12 [I-041] |  |  |  | 5
27 | CN(C)C(=O)[C@H]1CCN(c2ccc(Oc3ccnc4c(F)cncc34)cc2)C1 [I-015] | <24 | <24 | 43 | 1.5
28 | Cc1cncc2c(Oc3ccc(N4CC[C@H](C(=O)N(C)C)C4)cc3)ccnc12 [I-014] |  |  |  | 1.7
29 | CN(C)C(=O)[C@@H]1CCN(c2ccc(Oc3ccnc4c(Cl)cncc34)cc2)C1 [I-018] | 44 | 30 | 55 | 1.2
30 | CN(C)C(=O)Cn1cc(-c2ccc(Oc3ccnc4ccncc34)cc2)cn1 [I-040] | 45 | 27 | 32 | 2.6
31 | O=C([C@H]1CCN(c2ccc(Oc3ccnc4c(Cl)cncc34)cc2)C1)N1CCOCC1 [I-013] | 59 | 44 |  | 1.2
32 | CN(CCO)C(=O)[C@@H]1CCN(c2ccc(Oc3ccnc4c(F)cncc34)cc2)C1 [I-020] | <24 | <24 | <24 | 1.4
33 | N[C@H]1CCN(c2ccc(Oc3ccnc4c(F)cncc34)cc2)C1 [I-022] | <24 | <24 | <24 | 8.3
34 | Clc1cncc2c(Oc3ccc(N4CCCC4)cc3)ccnc12 [I-003] |  |  |  | 2.4
35 | Cc1cncc2c(Oc3ccc(N4CCCC4)cc3)ccnc12 [I-004] |  |  |  | 3.7
36 | COc1cc(Oc2ccc(N3CCN(C(C)=O)CC3)cc2)c2cnccc2n1 [I-034] |  |  |  | 14
37 | CN1CCN(C(=O)[C@H]2CCN(c3ccc(Oc4ccnc5c(F)cncc45)cc3)C2)CC1 [I-016] |  |  |  | 1.2
